For orientation: IC50 means the concentration that gives 50% inhibition.

For this experiment, the target named is T1, human GluN1/GluN2B NMDA receptors (Homo sapiens, UniProt Q05586+Q13224).
T1 construct: expressed in transfected cells
T1 sequence (Q13224 27-1484, other chains not shown): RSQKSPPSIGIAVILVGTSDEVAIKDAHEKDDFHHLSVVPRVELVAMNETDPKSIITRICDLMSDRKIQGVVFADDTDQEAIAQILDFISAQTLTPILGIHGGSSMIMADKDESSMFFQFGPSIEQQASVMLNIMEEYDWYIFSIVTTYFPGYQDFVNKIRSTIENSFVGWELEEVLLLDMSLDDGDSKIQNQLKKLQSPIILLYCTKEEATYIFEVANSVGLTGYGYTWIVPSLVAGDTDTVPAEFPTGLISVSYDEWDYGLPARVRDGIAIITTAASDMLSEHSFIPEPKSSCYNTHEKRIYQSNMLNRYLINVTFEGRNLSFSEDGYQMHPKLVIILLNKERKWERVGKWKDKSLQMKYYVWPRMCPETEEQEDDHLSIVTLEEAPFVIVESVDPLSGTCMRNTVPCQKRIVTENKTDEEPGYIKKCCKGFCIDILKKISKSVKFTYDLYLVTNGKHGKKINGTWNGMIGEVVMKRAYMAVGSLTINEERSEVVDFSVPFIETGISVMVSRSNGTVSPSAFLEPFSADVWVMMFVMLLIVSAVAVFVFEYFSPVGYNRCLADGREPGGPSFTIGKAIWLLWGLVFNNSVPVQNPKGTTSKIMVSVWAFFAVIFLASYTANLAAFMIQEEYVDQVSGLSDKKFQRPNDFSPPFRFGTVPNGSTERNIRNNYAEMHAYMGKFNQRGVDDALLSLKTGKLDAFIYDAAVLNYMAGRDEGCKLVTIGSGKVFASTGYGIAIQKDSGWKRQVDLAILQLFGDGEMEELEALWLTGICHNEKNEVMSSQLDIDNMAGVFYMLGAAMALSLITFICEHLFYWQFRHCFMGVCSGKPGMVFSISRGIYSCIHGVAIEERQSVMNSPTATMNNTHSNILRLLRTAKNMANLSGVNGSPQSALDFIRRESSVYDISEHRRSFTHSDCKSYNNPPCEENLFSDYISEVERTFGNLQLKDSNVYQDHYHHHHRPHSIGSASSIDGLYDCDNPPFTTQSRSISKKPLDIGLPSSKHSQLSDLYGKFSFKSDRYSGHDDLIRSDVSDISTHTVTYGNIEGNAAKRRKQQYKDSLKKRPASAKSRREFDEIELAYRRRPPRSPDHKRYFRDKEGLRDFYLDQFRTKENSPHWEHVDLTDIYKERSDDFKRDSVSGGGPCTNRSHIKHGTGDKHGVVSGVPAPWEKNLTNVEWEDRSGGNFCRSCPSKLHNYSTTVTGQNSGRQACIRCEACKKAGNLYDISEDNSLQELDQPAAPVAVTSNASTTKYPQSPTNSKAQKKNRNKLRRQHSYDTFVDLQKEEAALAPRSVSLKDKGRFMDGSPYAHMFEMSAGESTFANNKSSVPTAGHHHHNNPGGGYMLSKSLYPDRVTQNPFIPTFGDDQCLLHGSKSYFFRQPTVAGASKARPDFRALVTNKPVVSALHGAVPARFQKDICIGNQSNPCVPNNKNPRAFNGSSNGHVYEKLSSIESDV
The experiment in a line: Calcium flux (FLIPR) assay on cloned human NR1/GluN2B ion channels expressed in mammalian cells, standard assay. In kind it is cell-based. Particulars: glutamate ~EC40 and 10 μM glycine, stable cell line with Tet-On induced expression. As for the experimental part:
Effects of Test Articles on Cloned Human NR1/GluN2B Ion Channels Expressed in Mammalian Cells
NMDA receptors are ion channels that are highly permeable to Ca^2+ ions, rendering it possible to monitor NMDA receptor function using cell-based calcium flux assay. In this assay, co-agonists glutamate and glycine are added to cells heterologously expressing human GluN1/GluN2B NMDA receptors to initiate cellular Ca^2+ influx. The time course of the changes in intracellular calcium is measured using a fluorescent dye and a FLIPR (Fluorometric Imaging Plate Reader) device.
Twenty four hours before measurements, the expression of the NMDA receptors in the stable cell line is induced with Tet-On inducible system in the presence of a non-selective NMDA receptor blocker. On the day of the experiment, cell culture media is carefully washed and the cells are loaded with Calcium 5 Dye Kit (Molecular Devices) in dye loading buffer containing 137 mM NaCl, 4 mM KCl, 2 mM CaCl2, 0.5 mM MgCl2 (standard assay) or 1.5 mM MgCl2 (HTS assay), 10 mM HEPES and 5 mM D-glucose; pH 7.4. After 1 h incubation at the room temperature, the dye is washed away with the assay buffer (137 mM NaCl (standard assay) or 150 mM (HTS assay), 4 mM KCl (standard assay) or 3 mM (HTS assay), 2 mM CaC2, 0.01 mM EDTA, 10 mM HEPES and 5 mM D-glucose; pH 7.4) In the FLIPR TETRA reader, various concentrations of the test compounds are added to the cells for 5 min while fluorescence is monitored to detect potential agonist activity. Next, co-agonists, glutamate and glycine are added for another 5 minutes. The concentration of glutamate corresponding to ˜EC40 (standard assay) or EC40 (HTS assay) is used to maximize the assay's signal window and ability to detect NMDA receptor antagonists and negative allosteric modulators. A saturating concentration (10 μM) of glycine is also present in the assay. A non-selective NMDA receptor antagonist, (+)MK-801 is used as a positive control for antagonist activity. The fluorescent signal in the presence of test compounds is quantified and normalized to the signal defined by the appropriate control wells.
(Calcium flux is commonly read through the fluorescence of an indicator in the cells.)
For `O=C(Cn1ncc2ncc(-c3ccc(F)c(F)c3)cc21)C1CC1` [Example 65, 1-Cyclopropyl-2-[6-(3,4-difluorophenyl)pyrazolo[4,3-b]pyridin-1-yl]ethanone], the 50% inhibitory concentration (IC50) stood at 0.013 µM.
`CN1CC(Cn2ncc3ncc(-c4ccc(F)c(OC(F)F)c4)cc32)OC1=O` (racemic) [Example 128, (RS)-5-((6-(3-(Difluoromethoxy)-4-fluorophenyl)-1H-pyrazolo[4,3-b]pyridin-1-yl)methyl)-3-methyloxazolidin-2-one]: the IC50 stood at 0.165 µM.
Next, `Cc1cccc(-c2cnc3cnn(CC(=O)C4CC4)c3c2)c1F` [Example 71, 1-Cyclopropyl-2-[6-(2-fluoro-3-methyl-phenyl)pyrazolo[4,3-b]pyridin-1-yl]ethanone]: 0.007 µM; `CC(C)C(=O)Cn1ncc2ncc(-c3ccc(F)cc3)cc21` [Example 45, 1-[6-(4-Fluorophenyl)pyrazolo[4,3-b]pyridin-1-yl]-3-methyl-butan-2-one]: 0.036 µM.
In the case of `O=C(Cn1ncc2ncc(-c3ccc(Cl)s3)cc21)C1CC1` [Example 55, 2-[6-(5-Chloro-2-thienyl)pyrazolo[4,3-b]pyridin-1-yl]-1-cyclopropyl-ethanone], the IC50 is 0.008 µM.
Turning to `O=C(Cn1ncc2ncc(-c3ccc(F)c(C(F)F)c3)cc21)c1cccs1` [Example 137, 2-[6-[3-(Difluoromethyl)-4-fluoro-phenyl]pyrazolo[4,3-b]pyridin-1-yl]-1-(2-thienyl)ethanone], the IC50 turned out to be 0.036 µM.
As for `O=C(Cn1ncc2ncc(-c3ccc(F)c(F)c3F)cc21)C1CC1` [Example 79, 1-Cyclopropyl-2-[6-(2,3,4-trifluorophenyl)pyrazolo[4,3-b]pyridin-1-yl]ethanone], the IC50 was 0.03 µM.
With `CN1C[C@@H](Cn2ncc3ncc(-c4ccc(F)c(C(F)F)c4)cc32)OC1=O` [Example 130, (5S)-5-[[6-[3-(Difluoromethyl)-4-fluoro-phenyl]pyrazolo[4,3-b]pyridin-1-yl]methyl]-3-methyl-oxazolidin-2-one], the IC50 worked out at 0.478 µM.
Next, `O=C(Cn1ncc2ncc(-c3cccc(OC(F)(F)F)c3)cc21)C1CC1` [Example 63, 1-Cyclopropyl-2-[6-[3-(trifluoromethoxy)phenyl]pyrazolo[4,3-b]pyridin-1-yl]ethanone]: 0.031 µM; `O=C(Cn1ncc2ncc(-c3cccc(F)c3)cc21)C1CC1` [Example 57, 1-Cyclopropyl-2-[6-(3-fluorophenyl)pyrazolo[4,3-b]pyridin-1-yl]ethanone]: 0.026 µM.
For `CCC(=O)Cn1ncc2ncc(-c3cccc(C(F)F)c3)cc21` [Example 30, 1-[6-[3-(Difluoromethyl)phenyl]pyrazolo[4,3-b]pyridin-1-yl]butan-2-one], the IC50 was 0.027 µM.
As to `Fc1ccc(-c2cnc3cnn(CC4CCCO4)c3c2)cc1OC(F)F` (racemic) [Example 112, (RS)-6-[3-(Difluoromethoxy)-4-fluoro-phenyl]-1-(tetrahydrofuran-2-ylmethyl)pyrazolo[4,3-b]pyridine], the IC50 turned out to be 0.113 µM.
With `CCC(=O)Cn1ncc2ncc(-c3ccc(F)c(C(F)(F)F)c3)cc21` [Example 39, 1-[6-[4-Fluoro-3-(trifluoromethyl)phenyl]pyrazolo[4,3-b]pyridin-1-yl]butan-2-one], the IC50 was 0.075 µM.
As to `CC(=O)Cn1ncc2ncc(-c3ccc(F)c(C)c3)cc21` [Example 24, 1-[6-(4-Fluoro-3-methyl-phenyl)pyrazolo[4,3-b]pyridin-1-yl]propan-2-one], the IC50 was 0.015 µM.
As for `CCC(=O)Cn1nc(F)c2ncc(-c3ccc(F)c(F)c3)cc21` [Example 35, 1-[6-(3,4-Difluorophenyl)-3-fluoro-pyrazolo[4,3-b]pyridin-1-yl]butan-2-one], the IC50 was 0.005 µM.
For `CC(C)C(=O)Cn1ncc2ncc(-c3cccc(C(F)(F)F)c3F)cc21` [Example 50, 1-[6-[2-Fluoro-3-(trifluoromethyl)phenyl]pyrazolo[4,3-b]pyridin-1-yl]-3-methyl-butan-2-one], the IC50 was 0.076 µM.
Regarding `CON=C(Cn1ncc2ncc(-c3cccc(C(F)(F)F)c3)cc21)C(C)C` (mixture of isomers) [Example 105, (E/Z)-N-Methoxy-3-methyl-1-[6-[3-(trifluoromethyl)phenyl]pyrazolo[4,3-b]pyridin-1-yl]butan-2-imine], the half-maximal inhibitory concentration (IC50) was determined as 5.25 µM.
With `O=C(Cn1ncc2ncc(-c3cc(F)c(F)c(F)c3)cc21)C1CC1` [Example 9, 1-Cyclopropyl-2-[6-(3,4,5-trifluorophenyl)pyrazolo[4,3-b]pyridin-1-yl]ethanone], the concentration for half-maximal inhibition (IC50) was 0.03 µM.
On to `O=C(Cn1ncc2ncc(-c3ccc(F)c(C(F)F)c3)cc21)c1ccc(F)cn1` [Example 15, 2-(6-(3-(Difluoromethyl)-4-fluorophenyl)-1H-pyrazolo[4,3-b]pyridin-1-yl)-1-(5-fluoropyridin-2-yl)ethan-1-one], for which the IC50 was 0.16 µM.
On to `CC[S+]([O-])Cn1ncc2ncc(-c3cc(F)c(F)c(F)c3)cc21` (racemic) [Example 88, (RS)-1-(Ethylsulfinylmethyl)-6-(3,4,5-trifluorophenyl)pyrazolo[4,3-b]pyridine], for which the IC50 was 0.736 µM.
Next, `CCN1C[C@@H](Cn2ncc3ncc(-c4ccc(F)c(C(F)F)c4)cc32)OC1=O` [Example 132, (S)-5-[[6-[3-(Difluoromethyl)-4-fluoro-phenyl]pyrazolo[4,3-b]pyridin-1-yl]methyl]-3-ethyl-oxazolidin-2-one]: 1.43 µM.
For the compound `CN1C(=O)OCC1Cn1ncc2ncc(-c3ccc(F)c(OC(F)F)c3)cc21` (racemic) [Example 123, (RS)-4-((6-(3-(difluoromethoxy)-4-fluorophenyl)-1H-pyrazolo[4,3-b]pyridin-1-yl)methyl)-3-methyloxazolidin-2-one], the half-inhibitory concentration (IC50) worked out at 2.83 µM.
With `CCC(O)Cn1ncc2ncc(-c3ccc(F)c(OC(F)F)c3)cc21` (racemic) [Example 92, (RS)-1-[6-[3-(Difluoromethoxy)-4-fluoro-phenyl]pyrazolo[4,3-b]pyridin-1-yl]butan-2-ol] the figure was 0.282 µM.
On to `O=C1NC[C@H](Cn2ncc3ncc(-c4ccc(F)c(C(F)F)c4)cc32)O1` [Example 22, (R)-5-[[6-[3-(Difluoromethyl)-4-fluoro-phenyl]pyrazolo[4,3-b]pyridin-1-yl]methyl]oxazolidin-2-one], for which the IC50 was 0.187 µM.
As for `Cc1cc(F)ccc1-c1cnc2cnn(CC(=O)C3CC3)c2c1` [Example 72, 1-Cyclopropyl-2-[6-(4-fluoro-2-methyl-phenyl)pyrazolo[4,3-b]pyridin-1-yl]ethanone], the IC50 was 0.199 µM.
For the compound `CN1C[C@H](Cn2ncc3ncc(-c4ccc(F)c(C(F)F)c4)cc32)CC1=O` [Example 122, (R)-4-[[6-[3-(Difluoromethyl)-4-fluoro-phenyl]pyrazolo[4,3-b]pyridin-1-yl]methyl]-1-methyl-pyrrolidin-2-one], the half-maximal inhibitory concentration (IC50) amounted to 0.12 µM.
Next, `Fc1ccc(-c2cnc3cnn(CC4CCCO4)c3c2)cc1C(F)F` (racemic) [Example 18, (RS)-6-[3-(Difluoromethyl)-4-fluoro-phenyl]-1-(tetrahydrofuran-2-ylmethyl)pyrazolo[4,3-b]pyridine]: 0.035 µM; `ON=C(Cn1ncc2ncc(-c3cccc(C(F)(F)F)c3)cc21)C1CC1` (mixture of isomers) [Example 106, (E/Z)-1-Cyclopropyl-2-[6-[3-(trifluoromethyl)phenyl]pyrazolo[4,3-b]pyridin-1-yl]ethanone oxime]: 1.49 µM.
Regarding `O=C1O[C@H](Cn2ncc3ncc(-c4ccc(F)c(C(F)F)c4)cc32)CN1C1CC1` [Example 135, (S)-3-Cyclopropyl-5-[[6-[3-(difluoromethyl)-4-fluoro-phenyl]pyrazolo[4,3-b]pyridin-1-yl]methyl]oxazolidin-2-one], the concentration for half-maximal inhibition (IC50) is more than 3 µM.
With `CCC(O)Cn1nc(F)c2ncc(-c3ccc(F)c(F)c3)cc21` (racemic) [Example 94, (RS)-1-[6-(3,4-Difluorophenyl)-3-fluoro-pyrazolo[4,3-b]pyridin-1-yl]butan-2-ol] the figure was 0.965 µM.
Regarding `CC[S+]([O-])Cn1ncc2ncc(-c3ccc(F)c(F)c3)cc21` (racemic) [Example 82, (RS) 6-(3,4-Difluorophenyl)-1-(ethylsulfinylmethyl)pyrazolo[4,3-b]pyridine], the half-maximal inhibitory concentration (IC50) came out at 0.893 µM.
As for `CC(C)C(=O)Cn1ncc2ncc(-c3cccc(F)c3F)cc21` [Example 48, 1-[6-(2,3-Difluorophenyl)pyrazolo[4,3-b]pyridin-1-yl]-3-methyl-butan-2-one], the IC50 came out at 0.172 µM.
